Source: patent US8999964B2, “TGR5 modulators and methods of use thereof” (Intercept Pharmaceuticals, Inc., priority 2008, dated 2015)
pEC50: −log10 of the molar value. Structures can show the parent of a compound that is named as a salt.

Key:
hTGR5 [1] = biological target: T1, hTGR5 (Homo sapiens, UniProt Q8TDU6); experiment: cell-based; parameters: Human intestinal cell lines (NCI-H716) were plated in 96-well plates; endogenous in cells; conditions: Table 1; CRE-Luc reporter, HEK293T; read-out: Transactivation Assay hTGR5 EC50
T1 sequence (Q8TDU6 1-330): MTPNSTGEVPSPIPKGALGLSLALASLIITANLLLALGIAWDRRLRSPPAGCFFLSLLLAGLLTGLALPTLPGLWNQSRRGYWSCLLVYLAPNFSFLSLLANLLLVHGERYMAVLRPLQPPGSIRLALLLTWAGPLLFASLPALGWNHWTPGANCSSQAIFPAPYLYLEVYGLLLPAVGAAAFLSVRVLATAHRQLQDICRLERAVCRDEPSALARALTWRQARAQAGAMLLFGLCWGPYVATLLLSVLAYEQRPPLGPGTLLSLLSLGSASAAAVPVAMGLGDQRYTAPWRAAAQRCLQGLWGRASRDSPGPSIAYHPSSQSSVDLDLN
Procedure: HEPG2 and HEK293T cells were cultured in E-MEM and DMEM respectively, either supplemented with 1% penicillin/streptomycin, 1% L-glutamine and 10% fetal bovine serum. […] Cells were grown at 37° C. in 5% CO2. All the transfections were made using 5:2 Fugene HD Trasfection reagent (μl) to DNA (μg) respectively (Roche). […] Transient transfections were performed using 100 ng of reporter vector pGL4.29[luc2P/CRE/Hygro] […] The pGEM vector was added to normalize the amounts of DNA transfected in each assay (2 μg). […] The cells were then lysed by adding 75 μl of Dual-Glo Luciferase Reagent (Promega) to 75 μl of medium containing cells/well. Renilla luciferase activity was measured by adding volume:volume of Dual-Glo Stop & Glo reagent and original culture medium. Luciferase activities were expressed as ratio between luciferase unit and renilla luciferase unit. Each data point is the average of triplicate assays. Each experiment was repeated at least three times.
After subtracting the average value of the basal (vehicle-treated) condition, values were applied to EC50 and/or efficacy determinations. Calculation of average EC50 and comparison of the EC50 between different compounds were done after transformation to logarithms.

hFXR = biological target: T2, hFXR (Homo sapiens, UniProt Q96RI1); experiment: Alphascreen coactivator recruitment assay on FXR
T2 sequence (Q96RI1 262-486 limits assumed): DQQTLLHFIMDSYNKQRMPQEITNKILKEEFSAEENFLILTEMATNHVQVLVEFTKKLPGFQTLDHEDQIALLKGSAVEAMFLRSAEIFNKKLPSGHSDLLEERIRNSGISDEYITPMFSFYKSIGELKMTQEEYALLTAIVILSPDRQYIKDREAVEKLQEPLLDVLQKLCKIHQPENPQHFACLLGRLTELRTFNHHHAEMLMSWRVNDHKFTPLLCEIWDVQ
Procedure: Activity on FXR was assayed by using Alphascreen technology in a coactivator recruitment assay. AlphaScreen is a bead-based chemistry assay used to study biomolecular interactions. Binding of molecules captured on the beads leads to an energy transfer from one bead to the other, ultimately producing a luminescent signal. When the partners interact, chemical energy is transferred from Donor to Acceptor beads and a signal is produced. Upon bile acids stimulation the GST-FXR-LBD interacts with the Src-1 peptide. Anti-GST-coated Acceptor beads were used to capture the GST-fusion FXR-LBD whereas the biotinylated-SRC-1 peptide was captured by the streptavidin Donor beads. Upon illumination at 680 nm chemical energy is transferred from Donor to Acceptor beads across the complex streptavidin-Donor/Src-1-Biotin/GSTFXR-LBD/Anti-GST-Acceptor and a signal is produced. The assay was performed in white, low-volume, 384-well Optiplates (PerkinElmer) using a final volume of 25 μl containing final concentrations of 10 nM of purified GST-tagged FXR-LBD protein, 30 nM biotinylated Src-1 peptide, 20 μg/ml anti-GST acceptor beads acceptor beads and 10 μg/ml of streptavidin donor bead (PerkinElmer). […] After the addition of the detection mix (acceptor and donor beads), the plates were incubated in the dark for 4 h at room temperature and then were read with an Envision microplate analyzer (PerkinElmer). […]

CAR = biological target: T3, CAR (Homo sapiens, UniProt Q14994); experiment: CAR coactivator recruitment (Lanthascreen); type: biochemical; conditions: Table 6; coactivator recruitment (Lanthascreen)
T3 construct: purchased Invitrogen
T3 sequence (Q14994 109-352 limits assumed): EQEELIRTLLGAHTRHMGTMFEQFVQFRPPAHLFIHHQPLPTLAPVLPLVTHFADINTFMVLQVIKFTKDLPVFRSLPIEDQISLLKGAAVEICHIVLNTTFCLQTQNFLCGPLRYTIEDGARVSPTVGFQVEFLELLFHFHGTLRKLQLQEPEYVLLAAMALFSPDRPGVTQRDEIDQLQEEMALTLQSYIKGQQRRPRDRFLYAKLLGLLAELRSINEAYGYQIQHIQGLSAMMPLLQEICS

hTGR5 [2] = biological target: T1, hTGR5; experiment: FRET-cAMP on TGR5 overexpressing Hek293 cells; type: cell-based; parameters: Human intestinal cell lines (NCI-H716) were plated in 96-well plates; endogenous in cells
PPARδ = biological target: T4, PPARδ (Homo sapiens, UniProt Q03181); experiment: PPARδ activation, NR selectivity assay; conditions: Table 6
T4 sequence (Q03181 211-439 limits assumed): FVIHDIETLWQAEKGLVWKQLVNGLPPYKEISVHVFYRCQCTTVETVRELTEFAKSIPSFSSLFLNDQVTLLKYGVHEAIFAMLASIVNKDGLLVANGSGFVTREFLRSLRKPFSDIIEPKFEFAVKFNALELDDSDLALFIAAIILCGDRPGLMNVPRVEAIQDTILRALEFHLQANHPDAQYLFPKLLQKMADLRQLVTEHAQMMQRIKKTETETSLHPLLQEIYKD

VDR = biological target: T5, VDR (Homo sapiens, UniProt P11473); experiment: VDR activation, NR selectivity assay; type: biochemical; conditions: Table 6
T5 construct: purchased Invitrogen
T5 sequence (P11473 127-423 limits assumed): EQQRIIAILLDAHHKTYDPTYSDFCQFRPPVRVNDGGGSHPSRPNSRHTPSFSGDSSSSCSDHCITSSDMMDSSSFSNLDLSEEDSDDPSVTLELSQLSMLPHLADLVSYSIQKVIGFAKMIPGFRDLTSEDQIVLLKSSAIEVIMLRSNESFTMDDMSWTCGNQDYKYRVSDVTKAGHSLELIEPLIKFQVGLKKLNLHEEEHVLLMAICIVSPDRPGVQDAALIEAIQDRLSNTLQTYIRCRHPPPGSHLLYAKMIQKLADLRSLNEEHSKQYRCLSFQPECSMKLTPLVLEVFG

[3] = Bile fistula rat, duodenal (id) infusion: bile flow, biliary secretion, metabolism; conditions: for Intestinal absorption: biliary secretion id versus iv; for Conc. in bile: rat bile; for Secretion (biliary): rat
LXRα = biological target: T6, LXRα (Homo sapiens, UniProt Q13133); experiment: LXR coactivator recruitment (Alphascreen); type: biochemical; conditions: Table 6
T6 sequence (Q13133 1-447): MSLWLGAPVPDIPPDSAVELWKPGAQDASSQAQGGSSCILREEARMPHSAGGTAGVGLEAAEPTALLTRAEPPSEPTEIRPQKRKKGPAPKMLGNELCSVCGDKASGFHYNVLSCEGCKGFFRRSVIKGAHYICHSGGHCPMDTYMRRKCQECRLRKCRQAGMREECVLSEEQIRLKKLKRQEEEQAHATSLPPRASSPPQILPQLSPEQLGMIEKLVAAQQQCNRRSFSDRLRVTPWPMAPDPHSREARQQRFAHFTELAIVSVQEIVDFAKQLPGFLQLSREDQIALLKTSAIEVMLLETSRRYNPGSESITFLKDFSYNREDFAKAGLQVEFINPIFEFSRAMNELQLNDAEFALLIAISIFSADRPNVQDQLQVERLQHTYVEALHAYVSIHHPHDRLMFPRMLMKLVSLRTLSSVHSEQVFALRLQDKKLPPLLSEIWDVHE

[4] = duodenal infusion 1 μmol/kg/min 1 h, 90 min

CC[C@H]1[C@@H](O)[C@@H]2[C@H](CC[C@]3(C)[C@@H]([C@H](C)CCC(=O)O)[C@@H](O)C[C@@H]23)[C@@]2(C)CC[C@@H](O)C[C@@H]12 [Compound 10, 3α,7α,16β-trihydroxy-6α-ethyl-5β-cholan-24-oic acid sodium salt]
pEC50 (hTGR5 [1]): 7.40
pEC50 (hFXR): 4.92
CAR Activation EC50 (CAR): No activity
pEC50 (hTGR5 [2]): 6.70
PPARδ Activation EC50 (PPARδ): No activity
VDR Activation EC50 (VDR): No activity
Metabolism, species in bile after id administration ([3]; bile fistula rat, mass spectrometry): recovered as such and mainly metabolised to form the taurine conjugates
Intestinal absorption ([3]; bile fistula rat, listed as compound 10, sodium salt): poor intestinal absorption
Intestinal absorption ([3]; bile fistula rat, sodium salt): efficient
Conc. in bile [3, 4]: 10 µM
Secretion (biliary) [3, 4]: 0.0004 µmol/kg/min
Choleretic effect (bile flow) ([3]; duodenal infusion 1 μmol/kg/min, 1 hour, bile fistula rat): not choleretic
Conc. in bile ([3]; duodenal infusion, 120 min): 70 µM
Conc. in bile ([3]; duodenal infusion, 150 min): 390 µM
Conc. in bile ([3]; duodenal infusion, 180 min): 140 µM
Conc. in bile ([3]; duodenal infusion, 210 min): 90 µM
Conc. in bile ([3]; duodenal infusion, 240 min): 30 µM
Conc. in bile ([3]; duodenal infusion, 270 min): 20 µM
Conc. in bile ([3]; duodenal infusion, 300 min): 20 µM
Secretion (biliary) ([3]; duodenal infusion, 120 min): 0.003 µmol/kg/min
Secretion (biliary) ([3]; duodenal infusion, 150 min): 0.019 µmol/kg/min
Secretion (biliary) ([3]; duodenal infusion, 180 min): 0.003 µmol/kg/min
Secretion (biliary) ([3]; duodenal infusion, 210 min): 0.004 µmol/kg/min
Secretion (biliary) ([3]; duodenal infusion, 240 min): 0.001 µmol/kg/min
Secretion (biliary) ([3]; duodenal infusion, 270 min): 0.001 µmol/kg/min
Secretion (biliary) ([3]; duodenal infusion, 300 min): 0.001 µmol/kg/min
LXRα Activation EC50 (LXRα): No activity
